From ChEMBL document CHEMBL1201862, “PubChem BioAssay data set” (2004)
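Interpolation was linear, between the two tested concentrations surrounding the appropriate level; five concentrations were tested over 48 hours in 96-well plates. GI50 is the concentration that inhibits growth by half.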 Calls of active or inactive are those of the source. Cut-off read from the data, not from the text of the source: active = GI50 up to about 1.1 µM and inactive = higher.

Key:
Assay in all cases: NCI-60 cell line screen, 48 h
HCT-116 = test system: HCT-116
UO-31 = test system: UO-31
NCI-H522 = test system: NCI-H522
EKVX = test system: EKVX
SNB-75 = test system: SNB-75
OVCAR-4 = test system: OVCAR-4
TK-10 = test system: TK-10
KM12 = test system: KM12
BT-549 = test system: BT-549
SK-MEL-2 = test system: SK-MEL-2
DU-145 = test system: DU-145
HCT-15 = test system: HCT-15
PC-3 = test system: PC-3
SNB-19 = test system: SNB-19
CCRF-CEM = test system: CCRF-CEM
M14 = test system: M14
LOX IMVI = test system: LOX IMVI
CAKI-1 = test system: CAKI-1
Malme-3M = test system: Malme-3M

Compound	GI50 (HCT-116)	GI50 (UO-31)	GI50 (NCI-H522)	GI50 (EKVX)	GI50 (SNB-75)	GI50 (OVCAR-4)	GI50 (TK-10)	GI50 (KM12)	GI50 (BT-549)	GI50 (SK-MEL-2)	GI50 (DU-145)	GI50 (HCT-15)	GI50 (PC-3)	GI50 (SNB-19)	GI50 (CCRF-CEM)	GI50 (M14)	GI50 (LOX IMVI)	GI50 (CAKI-1)	GI50 (Malme-3M)
O=c1[nH]nc(Cc2ccccc2)[nH]1	> 100 µM (inactive)	> 100 µM (inactive)	> 100 µM (inactive)	> 100 µM (inactive)	> 100 µM (inactive)	> 100 µM (inactive)	> 100 µM (inactive)	> 100 µM (inactive)	> 100 µM (inactive)	> 100 µM (inactive)	> 100 µM (inactive)	> 100 µM	> 100 µM (inactive)	> 100 µM (inactive)	> 100 µM (inactive)	> 100 µM (inactive)	> 100 µM (inactive)	> 100 µM (inactive)	> 100 µM (inactive)
NCCCN1CCN(CC(=O)O)CCN(CCCN)CCN(CC(=O)O)CC1	> 100 µM (inactive)	> 34.3 µM (inactive)	24.7 µM (inactive)	> 77.6 µM (inactive)	> 100 µM (inactive)	> 100 µM (inactive)	> 100 µM (inactive)	28.3 µM (inactive)	> 100 µM (inactive)	> 33.3 µM (inactive)	> 100 µM (inactive)	43.8 µM	> 45.1 µM (inactive)	> 100 µM (inactive)	> 91.6 µM (inactive)	82.6 µM (inactive)	> 100 µM (inactive)	> 100 µM (inactive)	25.5 µM (inactive)
Cc1ccc(S(=O)(=O)N2CCN(S(=O)(=O)c3ccc(C)cc3)CCN(S(=O)(=O)c3ccc(C)cc3)Cc3cc(C#N)c(C#N)cc3CN(S(=O)(=O)c3ccc(C)cc3)CC2)cc1	> 100 µM (inactive)	> 100 µM (inactive)	> 100 µM (inactive)	> 100 µM (inactive)	19.1 µM (inactive)	> 100 µM (inactive)	86.7 µM (inactive)	> 100 µM (inactive)	> 100 µM (inactive)		> 100 µM (inactive)	> 100 µM	39.4 µM (inactive)	51.1 µM (inactive)	> 100 µM (inactive)	25.8 µM (inactive)	> 100 µM (inactive)	> 100 µM (inactive)	52.4 µM (inactive)
Cc1c(-c2nc3ccccc3[nH]2)c(=O)n(-c2ccccc2)n1C	> 100 µM (inactive)	> 100 µM (inactive)	> 100 µM (inactive)	> 100 µM (inactive)	> 100 µM (inactive)	> 100 µM (inactive)	> 100 µM (inactive)	> 100 µM (inactive)	> 100 µM (inactive)	> 100 µM (inactive)	> 100 µM (inactive)	> 100 µM	> 100 µM (inactive)	> 100 µM (inactive)	> 100 µM (inactive)	> 100 µM (inactive)	> 100 µM (inactive)	> 100 µM (inactive)	> 100 µM (inactive)
Cc1cn(CCC(N)C(=O)O)c(=O)[nH]c1=O (stereo not drawn)	> 100 µM (inactive)	> 100 µM (inactive)	> 100 µM (inactive)	> 100 µM (inactive)	> 100 µM (inactive)	> 100 µM (inactive)	> 100 µM (inactive)	> 100 µM (inactive)	> 100 µM (inactive)	> 100 µM (inactive)	> 100 µM (inactive)	> 100 µM	> 100 µM (inactive)	> 100 µM (inactive)	> 100 µM (inactive)	> 100 µM (inactive)	> 100 µM (inactive)		> 100 µM (inactive)
NNC1=Nc2ccc(Cl)cc2C(=S)N2CSCC12 (stereo not drawn)	> 100 µM (inactive)	> 100 µM (inactive)	> 100 µM (inactive)	> 100 µM (inactive)	> 100 µM (inactive)	> 100 µM (inactive)	> 100 µM (inactive)	34.6 µM (inactive)	> 100 µM (inactive)	> 100 µM (inactive)	> 100 µM (inactive)	> 100 µM	> 100 µM (inactive)	> 100 µM (inactive)	> 100 µM (inactive)	> 100 µM (inactive)	> 100 µM (inactive)	> 100 µM (inactive)	> 100 µM (inactive)
Cc1ccccc1C1CC(=O)CC(c2ccccc2C)C12C(=O)NC(=O)NC2=O (stereo not drawn)	> 100 µM (inactive)	> 100 µM (inactive)	> 75.3 µM (inactive)	> 100 µM (inactive)	> 100 µM (inactive)	> 62.4 µM (inactive)	> 100 µM (inactive)	> 100 µM (inactive)	> 100 µM (inactive)	> 100 µM (inactive)	> 100 µM (inactive)	> 100 µM	> 100 µM (inactive)	> 100 µM (inactive)	> 65.3 µM (inactive)	> 100 µM (inactive)	> 100 µM (inactive)	> 100 µM (inactive)	> 100 µM (inactive)
COc1cc(NC(C)=O)ccc1C(=O)N/N=C/c1ccco1	> 100 µM (inactive)	67.1 µM (inactive)	> 100 µM (inactive)	> 100 µM (inactive)	> 100 µM (inactive)	> 100 µM (inactive)		> 100 µM (inactive)	> 100 µM (inactive)	> 100 µM (inactive)	> 100 µM (inactive)	> 100 µM	> 100 µM (inactive)	> 100 µM (inactive)	80.2 µM (inactive)	> 100 µM (inactive)	97.5 µM (inactive)	65 µM (inactive)	> 100 µM (inactive)
CC1(C)[C@@H]2CC[C@]1(C)[C@H](OC(=O)CSC#N)C2	40.4 µM (inactive)	39.1 µM (inactive)	43.9 µM (inactive)	> 100 µM (inactive)	> 100 µM (inactive)	> 100 µM (inactive)	> 100 µM (inactive)	> 100 µM (inactive)	> 100 µM (inactive)	> 100 µM (inactive)	> 100 µM (inactive)	> 100 µM	> 100 µM (inactive)	> 100 µM (inactive)		47.1 µM (inactive)	35.2 µM (inactive)	> 100 µM (inactive)	> 100 µM (inactive)
C[n+]1c(/C=C/c2ccc(O)c3ncccc23)[se]c2ccccc21	2.58 µM (inactive)	2.71 µM (inactive)	2.58 µM (inactive)	4.25 µM (inactive)	12.1 µM (inactive)	4.2 µM (inactive)	3.1 µM (inactive)	2.48 µM (inactive)	6.53 µM (inactive)	4.26 µM (inactive)	4.26 µM (inactive)	0.631 µM	2.92 µM (inactive)	4.5 µM (inactive)	0.92 µM (active)	4.67 µM (inactive)	2.33 µM (inactive)	5.01 µM (inactive)	4.01 µM (inactive)
COc1ccc([C@]23CCN(S(=O)(=O)c4ccc(C)cc4)[C@H]2[C@H](CO)C2(CC3)OCC(C)(C)CO2)cc1OC	> 100 µM (inactive)	> 100 µM (inactive)	> 100 µM (inactive)	> 100 µM (inactive)	> 100 µM (inactive)	> 100 µM (inactive)	> 100 µM (inactive)	> 100 µM (inactive)	> 100 µM (inactive)	> 100 µM (inactive)	> 100 µM (inactive)	> 100 µM	> 100 µM (inactive)	> 100 µM (inactive)	> 100 µM (inactive)	> 100 µM (inactive)	> 100 µM (inactive)	> 100 µM (inactive)	> 100 µM (inactive)
Cn1c(=O)c2c(ncn2CCSS(=O)(=O)O)n(C)c1=O	> 100 µM (inactive)	> 100 µM (inactive)	> 100 µM (inactive)	72.6 µM (inactive)	38.5 µM (inactive)	> 100 µM (inactive)	> 100 µM (inactive)	> 100 µM (inactive)	> 100 µM (inactive)	55.3 µM (inactive)	> 100 µM (inactive)	> 100 µM	> 100 µM (inactive)	> 100 µM (inactive)		72.3 µM (inactive)		> 100 µM (inactive)	> 100 µM (inactive)
Cn1cc(NC(=O)Nc2cc(C(=O)Nc3cc(C(=O)Nc4ccc5cc(S(=O)(=O)O)cc(S(=O)(=O)O)c5c4)n(C)c3)n(C)c2)cc1C(=O)Nc1cc(C(=O)Nc2ccc3cc(S(=O)(=O)O)cc(S(=O)(=O)O)c3c2)n(C)c1	> 100 µM (inactive)	> 100 µM (inactive)	> 100 µM (inactive)	38.5 µM (inactive)	82 µM (inactive)	> 100 µM (inactive)	83 µM (inactive)	> 100 µM (inactive)	> 100 µM (inactive)		> 100 µM (inactive)	> 100 µM	> 100 µM (inactive)	> 100 µM (inactive)	> 100 µM (inactive)	91.4 µM (inactive)	> 100 µM (inactive)		> 100 µM (inactive)
CCCCCCCCCCCC(=O)OCC(O)CO (stereo not drawn) [GLYCEROL MONOLAURATE]	> 100 µM (inactive)	71.9 µM (inactive)	> 100 µM (inactive)	> 100 µM (inactive)	> 100 µM (inactive)	> 100 µM (inactive)	> 100 µM (inactive)	20.4 µM (inactive)	36.4 µM (inactive)	> 100 µM (inactive)	> 100 µM (inactive)	> 100 µM	> 100 µM (inactive)	> 100 µM (inactive)	42.7 µM (inactive)	69.7 µM (inactive)	48.1 µM (inactive)	> 100 µM (inactive)	
CCCCCCCCCCCCCCN [TETRADECYLAMINE]	> 100 µM (inactive)		> 100 µM (inactive)	> 100 µM (inactive)	> 100 µM (inactive)	> 100 µM (inactive)	> 100 µM (inactive)	> 100 µM (inactive)	> 100 µM (inactive)	> 100 µM (inactive)	> 100 µM (inactive)	> 100 µM	> 100 µM (inactive)		> 100 µM (inactive)		> 100 µM (inactive)	> 100 µM (inactive)	> 100 µM (inactive)
